How the values were obtained:
[1] = system: primary human hepatocytes; assay: Glucagon-stimulated glycogenolysis in primary human hepatocytes; assay type: cell-based; conditions: 1 h
Description: Figure 1 GRA1 inhibits glucagon-mediated glycogenolysis in vitro and ex-vivo. (A) The chemical structure of GRA1. (B) Dose-dependent inhibition of glucagon-stimulated glycogenolysis in human hepatocytes. The cells were pretreated for 3 h with 200 nM insulin and then challenged with 2 nM glucagon with vehicle (Veh, medium with 1% DMSO) or 0.3–10 µM GRA1. Glycogen content was measured after incubating for 1 h. *p<0.05 and **p<0.01 vs. glucagon+vehicle alone. (C) Inhibition of glucagon-stimulated glycogenolysis in perfused liver prepared from the hGCGR mouse. Livers were perfused with Ringers solution containing 6.7 mM [2-^13C]pyruvate while ^13C content (indicative of accumulated [^13C]glycogen) was monitored dynamically by nuclear magnetic resonance imaging. At time = −22 min, 0.1–3.0 uM GRA1 or vehicle was added to the perfusate; 50 pM glucagon or vehicle was added at time 0. The data are means ±SEM.
Transfected Chinese hamster ovary (CHO) cell lines were acquired and maintained as previously described, [20]. These included separate cell lines stably expressing human GCGR (hGCGR), mouse GCGR, rhesus GGCR, glucose-dependent insulinotropic peptide receptor (GIPR), GLP-1 receptor (GLP-1R), pituitary adenylate cyclase-activating polypeptide receptor type 1 (PAC1R), and vasoactive adenylate cyclase-activating polypeptide receptor type 2 (VPAC2R). […]

[2] = biological target: T1, rhesus GCGR (Macaca mulatta, UniProt A0A1D5QZY8); assay: Inhibition of glucagon-stimulated cAMP production in CHO cells expressing rhesus GCGR; assay type: cell-based
T1 construct: expressed in transfected cells
T1 sequence (A0A1D5QZY8 27-491): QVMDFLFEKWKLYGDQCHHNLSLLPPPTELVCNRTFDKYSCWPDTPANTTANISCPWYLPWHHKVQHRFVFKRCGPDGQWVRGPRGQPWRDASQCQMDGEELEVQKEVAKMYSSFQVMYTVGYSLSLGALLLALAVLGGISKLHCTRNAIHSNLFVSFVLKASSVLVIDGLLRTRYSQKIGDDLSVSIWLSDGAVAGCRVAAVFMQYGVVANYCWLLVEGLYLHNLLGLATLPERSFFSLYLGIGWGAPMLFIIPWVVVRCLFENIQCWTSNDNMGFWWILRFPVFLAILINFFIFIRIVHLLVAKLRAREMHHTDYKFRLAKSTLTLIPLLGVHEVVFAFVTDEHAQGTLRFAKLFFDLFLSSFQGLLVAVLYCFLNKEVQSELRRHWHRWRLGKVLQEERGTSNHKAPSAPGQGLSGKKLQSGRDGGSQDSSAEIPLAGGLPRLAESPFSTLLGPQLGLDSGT
Description: Transfected Chinese hamster ovary (CHO) cell lines were acquired and maintained as previously described [17], [20]. These included separate cell lines stably expressing human GCGR (hGCGR), mouse GCGR, rhesus GGCR, glucose-dependent insulinotropic peptide receptor (GIPR), GLP-1 receptor (GLP-1R), pituitary adenylate cyclase-activating polypeptide receptor type 1 (PAC1R), and vasoactive adenylate cyclase-activating polypeptide receptor type 2 (VPAC2R). […] Functional antagonism was assayed by measuring the production of cAMP in intact CHO cells stimulated by agonists specific for their cognate receptors (i.e., glucagon for GCGR-expressing cell lines, GIP for the GIPR-expressing line, etc.).

[3] = system: perfused liver from hGCGR mice; assay: Glucagon-stimulated glycogenolysis in perfused liver from hGCGR mouse (13C NMR); conditions: 50 pM glucagon
Description: Glycogen content of perfused hGCGR mouse liver was measured as previously described [30]. In brief, livers were perfused ex vivo with Ringers solution containing 6.7 mM [2-^13C]pyruvate while ^13C content (indicative of accumulated [^13C]glycogen) was monitored dynamically by nuclear magnetic resonance imaging.

[4] = system: hGCGR.ob/ob mice; assay: Antihyperglycemic efficacy in hGCGR.ob/ob mice (acute and chronic); assay type: in vivo, hGCGR.ob/ob mouse
Text: The present study made use of a line of hGCGR-expressing mouse (“hGCGR mouse”) generated previously by substituting the hGCGR gene for the mouse GCGR gene. These mice were crossed with C57BL/6J.ob/+ mice (Jackson Laboratories, Bar Harbor, ME) to obtain an hGCGR.ob/+ mouse line. The hGCGR.ob/+ mice were then intercrossed to obtain hGCGR.ob/ob, hGCGR.ob/+, and hGCGR.+/+ mice (with the hGCGR.ob/+ and hGCGR.+/+ mice serving as littermate controls). […] obese (DIO) hGCGR mice were generated by maintaining hGCGR mice on a high-fat diet (HFD) in which 45–60% of calories were in fat (Product S3282, Bio-Serv, Frenchtown, NJ). High-fat-diet-streptozotocin-treated (HFD/STZ) diabetic mice were generated in-house as previously described.
Acute glucose lowering was studied in non-fasted hGCGR.ob/ob mice and HFD/STZ mice administered single doses p.o. of 1, 3 and 10 mg/kg GRA1 in 10 mL/kg 0.5% aqueous methylcellulose. Animals were fasted during the interval between dosing and the final blood glucose measurement. Glucose was measured in blood from tail bleeds using a OneTouch glucometer. In the experiments with hGCGR HFD/STZ mice, treatment groups were matched with respect to body weight and blood glucose levels.
Animals were dosed chronically with GRA1 and the DPP-4 inhibitor des-fluoro-sitagliptin by administering these agents as food admixtures. The admixtures were prepared in-house and by Research Diets (New Brunswick, NJ), with drug concentrations adjusted weekly on the basis of average food consumption and animal weight to provide targeted daily doses. In the GRA1 experiments, the targeted doses were 3, 6, 10, and 30 mg/kg•day. In des-fluoro-sitagliptin experiments, the targeted dose was 200 mg/kg•day, a relatively high amount necessary because this compound has a half-life in rodents of 1–2 h.
Plasma glucagon and active GLP-1 were measured using commercial ELISA kits (Linco Research Immunoassay, St. Charles, MO). […] Plasma insulin was determined by ELISA with a commercial kit (ALPCO Diagnostics, Windham, NH). Plasma concentrations of glycated hemoglobin A1c (HbA1c) were measured using a Micromat II test kit from Bio-Rad Laboratories (Hercules, CA). Total cholesterol, low-density lipoprotein cholesterol (LDL-c) and non-LDL-c, and aspartate aminotransferase were measured using a Roche P Modular Clinical Chemistry analyzer (Indianapolis, IN).
Figure 4 GRA1 lowers blood glucose in the DIO hGCGR and hGCGR.ob/ob mouse. Mean (±SEM) blood glucose concentrations in (A) non-fasted and (B) fasted DIO hGCGR mice treated with approximately 3 and 10 mg/kg·day GRA1 provided as a food admixture. (Additional data from this study are in Table 2). (C) Mean (±SEM) blood glucose concentrations in the hGCGR.ob/ob mouse following single oral doses of 1, 3, or 10 mg/kg GRA1 or vehicle. (D) Mean (±SEM) non-fasted blood glucose concentrations in hGCGR.ob/ob mice treated for 2–8 weeks with control diet or 10 mg/kg·day GRA1 administered as diet admixture. *p<0.05, **p<0.01, and ***p<0.001 in timepoint-matched comparisons with controls; n = 8 in each group.

[5] = Pharmacokinetics / plasma GRA1 concentrations in rhesus monkeys; assay type: in vivo, rhesus monkey
[6] = biological target: T2, human GCGR (hGCGR) (Homo sapiens, UniProt P47871); assay: Inhibition of glucagon-stimulated cAMP production in intact CHO cells expressing human GCGR; assay type: cell-based
T2 construct: expressed in transfected cells
T2 sequence (P47871 26-477): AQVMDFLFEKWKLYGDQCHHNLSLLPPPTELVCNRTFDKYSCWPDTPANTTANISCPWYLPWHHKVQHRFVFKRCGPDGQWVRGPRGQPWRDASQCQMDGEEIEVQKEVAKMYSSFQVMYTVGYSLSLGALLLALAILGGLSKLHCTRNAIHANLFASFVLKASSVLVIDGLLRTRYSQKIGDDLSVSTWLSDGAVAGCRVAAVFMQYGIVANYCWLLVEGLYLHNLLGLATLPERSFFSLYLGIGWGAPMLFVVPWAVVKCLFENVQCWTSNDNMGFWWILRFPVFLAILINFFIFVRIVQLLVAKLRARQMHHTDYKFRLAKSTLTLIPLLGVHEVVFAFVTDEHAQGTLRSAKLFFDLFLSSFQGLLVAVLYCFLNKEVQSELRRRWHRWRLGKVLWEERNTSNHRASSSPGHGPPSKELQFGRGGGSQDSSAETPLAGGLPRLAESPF
Text: Transfected Chinese hamster ovary (CHO) cell lines were acquired and maintained as previously described, [20]. These included separate cell lines stably expressing human GCGR (hGCGR), mouse GCGR, rhesus GGCR, glucose-dependent insulinotropic peptide receptor (GIPR), GLP-1 receptor (GLP-1R), pituitary adenylate cyclase-activating polypeptide receptor type 1 (PAC1R), and vasoactive adenylate cyclase-activating polypeptide receptor type 2 (VPAC2R). Inhibition of glucagon binding to hGCGR was assayed in cell membranes prepared from the line of CHO cells that expressed the hGCGR. Functional antagonism was assayed by measuring the production of cAMP in intact CHO cells stimulated by agonists specific for their cognate receptors (i.e., glucagon for GCGR-expressing cell lines, GIP for the GIPR-expressing line, etc.). Primary human hepatocytes were obtained from In Vitro Technologies (Baltimore, MD) and glucagon-stimulated glycogenolysis was studied in these as previously described.

COc1ccc2cc(-c3cc(-c4cc(C(F)(F)F)ccc4F)nn3[C@@H](C)c3ccc(C(=O)NCCC(=O)O)cc3)ccc2c1 [GRA1, N-[4-((1S)-1-{3-(2-fluoro-5-trifluoromethylphenyl)-5-[6-methoxynaphth-2-yl]-1H-pyrazol-1-yl}ethyl)benzoyl]-β-alanine]
Inhibition of glucagon-induced glycogen loss ([1]; 10 µM GRA1, 2 nM glucagon): completely prevented | inhibition at 0.3 µM ([1]; Homo sapiens, Hepatocyte, 0.3 µM GRA1, 2 nM glucagon, read-out: Inhibition of glucagon-induced glycogen loss): ~50% | IC50 [2]: 0.015 µM | Reduction of hepatic response to glucagon (13C glycogen loss) ([3]; 0.3 µM GRA1 pretreatment): about 50% | Hepatic response to glucagon (13C glycogen loss) ([3]; 1 µM GRA1 pretreatment): completely prevented | Hepatic response to glucagon (13C glycogen loss) ([3]; 3 µM GRA1 pretreatment): completely prevented | Non-fasted blood glucose lower than control diet ([4]; 10 mg/kg•day, 2, 4 and 8 weeks): 40–50% | Food intake, body weight, fasting insulin levels vs control diet ([4]; 10 mg/kg•day, 8 weeks (data not shown)): No differences | Mean fasted blood glucose ([4]; 10 mg/kg•day, 8 weeks, control diet 189±36): 90.8 ± 7.8 mg/dL | Mean plasma glucagon ([4]; 10 mg/kg•day, 8 weeks, control diet 959±90): 1356 ± 113 pg/mL | Total GLP-1 ([4]; 10 mg/kg•day, 8 weeks, controls 15.6±2.0): 26.5 ± 3.0 pM | Effect on blood glucose, single dose ([4]; single doses of 3 and 10 mg/kg vs vehicle): lowered blood glucose significantly | concentration at 1 h ([5]; rhesus monkey, plasma, oral, 1 mg/kg, 1 h postdose (glucagon challenge)): 0.2 µM | half-life ([5]; rhesus monkey, plasma, single oral dose 2 mg/kg, read-out: Apparent plasma terminal half-life (converted)): 6.3 h | Fraction of the dose absorbed ([5]; single oral dose 2 mg/kg): 55% | Route of excretion ([5]; single oral dose 2 mg/kg): nearly all absorbed drug was excreted unchanged via the bile | IC50 [6]: 0.012 µM

Source: paper PMC3501516, “Anti-Diabetic Efficacy and Impact on Amino Acid Metabolism of GRA1, a Novel Small-Molecule Glucagon Receptor Antagonist” (PLoS ONE, 2012)
